Article PMC2588526 (Nucleic Acids Research, 2008)
Blank lines part the entries; values can stand above or below the molecule they belong to.

How the values were obtained:
TvTgs = target: T1, TvTgs (Trichomonas vaginalis, UniProt A2DM16); assay: radiometric 3H methyl transfer, DEAE filter; format: biochemical
T1 sequence (A2DM16 1-280): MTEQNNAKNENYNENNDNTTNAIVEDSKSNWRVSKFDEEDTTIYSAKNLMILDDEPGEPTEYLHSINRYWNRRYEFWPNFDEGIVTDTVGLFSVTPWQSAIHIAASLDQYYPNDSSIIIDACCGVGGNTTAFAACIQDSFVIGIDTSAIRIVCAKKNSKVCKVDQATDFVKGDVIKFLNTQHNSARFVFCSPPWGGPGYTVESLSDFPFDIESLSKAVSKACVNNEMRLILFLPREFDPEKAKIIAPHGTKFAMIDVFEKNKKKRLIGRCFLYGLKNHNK

GlTgs = target: T2, GlTgs (Giardia duodenalis, UniProt A8BW33); assay: 3H methyl transfer, PEI-cellulose TLC; format: biochemical; conditions: 0.1 mM m7GDP, 5 μM [methyl-3H]AdoMet, 37 °C; single methylation to DMG
T2 sequence (A8BW33 1-258): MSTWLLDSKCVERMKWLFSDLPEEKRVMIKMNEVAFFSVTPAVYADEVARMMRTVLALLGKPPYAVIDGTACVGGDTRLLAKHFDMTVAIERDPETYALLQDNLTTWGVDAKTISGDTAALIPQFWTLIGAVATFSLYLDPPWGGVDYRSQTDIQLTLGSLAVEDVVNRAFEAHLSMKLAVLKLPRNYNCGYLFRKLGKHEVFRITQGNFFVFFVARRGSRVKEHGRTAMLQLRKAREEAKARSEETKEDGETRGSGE

[1] = substrate: C[n+]1cn([C@@H]2O[C@H](COP(=O)(O)OP(=O)(O)O)[C@@H](O)[C@H]2O)c2nc(N)[nH]c(=O)c21; assay: radiometric 3H methyl transfer, DEAE filter; format: biochemical, Trichomonas vaginalis; conditions: [methyl-3H]AdoMet co-substrate, pH 7.5, 37 °C
[2] = substrate: C[n+]1cn([C@@H]2O[C@H](COP(=O)(O)OP(=O)(O)OP(=O)(O)O)[C@@H](O)[C@H]2O)c2nc(N)[nH]c(=O)c21; assay: radiometric 3H methyl transfer, DEAE filter; format: biochemical, Trichomonas vaginalis; conditions: [methyl-3H]AdoMet co-substrate, pH 7.5, 37 °C

IC50 (TvTgs): ~250 µM
Molecule: Nc1ncnc2c1ncn2[C@@H]1O[C@H](CSCC[C@H](N)C(=O)O)[C@@H](O)[C@H]1O [AdoHcy]

Molecule: C[n+]1cn([C@@H]2O[C@H](COP(=O)(O)OP(=O)(O)O)[C@@H](O)[C@H]2O)c2nc(N)[nH]c(=O)c21 [m^7GDP]
3H methyl transfer, PEI-cellulose TLC (GlTgs): TvTgs (Tv), GlTgs (Gl) and SpTgs (Sp) were compared side by side

B1: TvTgs (Trichomonas vaginalis G3) (protein)
chain: T1 sequence (A2DM16 1-280)
Km [1]: 250 +/– 30.7 μM
Km [2]: 1.59 +/– 0.205 mM
